Test results: paper PMC10794144, “A novel antibiotic class targeting the lipopolysaccharide transporter” (Nature, 2024)
≈ marks a conversion by molar mass, not a printed value. Where “and” joins values, the source holds several entries; their conditions need not be identical. Equal values may be shown once. Read-outs that look alike come from different tables or passages of the source.

Tests used:
P. aeruginosa ATCC 27853 = experiment: microbe, parasite or virus in culture; conditions: for MIC: Pseudomonas aeruginosa
Method in brief: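 Standard broth microdilution per CLSI; diluted 0.5 McFarland inocula in cation-adjusted Mueller-Hinton broth; visual or OD600 endpoint.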

HEK293 cells = experiment: Cell-viability assay (CellTiterGlo); format: cell-based; conditions: Homo sapiens, 24 h, 37 °C, 3.125–100 μM, n = 2
Protocol: Compounds were prepared in serial dilutions (3.125–100 μM in 1% DMSO) and transferred to 384-well plates together with a positive (Staurosporine) and a negative (no compound) control. In total, 25 μl of HEK293 cells (ATCC; verified by short tandem repeat PCR and mycoplasma negative) (50,000 cells per ml) were added in either low-serum-containing (0.5% fetal bovine serum (FBS)) or high-serum-containing (12.5% FBS, 1% BSA) medium (Dulbecco’s modified Eagle medium (DMEM), glucose, L-glutamine). The plates were incubated for 24 h at 37 °C and a mixture of CellTiterGlo and DMEM was added to the plates. After incubation at room temperature, the luminescence signal was read using a BioTeK reader and a calculated IC50 was derived from the data.

CDK2 = molecular target: T1, CDK2 (Homo sapiens, UniProt P24941); experiment: Off-target screening (CEREP); format: biochemical; conditions: read-out: percent inhibition
T1 construct: purchased Eurofins CEREP SA
Protocol: (§1) Supplementary Table 1 │ Off-target activity screening f or MCP compou nds […]
(§2) The assays given in the table above were conducted at Eurofins CEREP S A (Celle-Lévescault, France) and were run as single point measurements in duplicates in the presence of 10 µ M of the test compound and reported as percent inhibition of the radioligand signal or control enzymatic activity. n.d., not

Monoamine oxidase-A = molecular target: T2, Monoamine oxidase-A (Homo sapiens, UniProt P21397); experiment: Off-target screening (CEREP); format: biochemical; conditions: read-out: percent inhibition
T2 construct: purchased Eurofins CEREP SA
T2 sequence (P21397 1-527): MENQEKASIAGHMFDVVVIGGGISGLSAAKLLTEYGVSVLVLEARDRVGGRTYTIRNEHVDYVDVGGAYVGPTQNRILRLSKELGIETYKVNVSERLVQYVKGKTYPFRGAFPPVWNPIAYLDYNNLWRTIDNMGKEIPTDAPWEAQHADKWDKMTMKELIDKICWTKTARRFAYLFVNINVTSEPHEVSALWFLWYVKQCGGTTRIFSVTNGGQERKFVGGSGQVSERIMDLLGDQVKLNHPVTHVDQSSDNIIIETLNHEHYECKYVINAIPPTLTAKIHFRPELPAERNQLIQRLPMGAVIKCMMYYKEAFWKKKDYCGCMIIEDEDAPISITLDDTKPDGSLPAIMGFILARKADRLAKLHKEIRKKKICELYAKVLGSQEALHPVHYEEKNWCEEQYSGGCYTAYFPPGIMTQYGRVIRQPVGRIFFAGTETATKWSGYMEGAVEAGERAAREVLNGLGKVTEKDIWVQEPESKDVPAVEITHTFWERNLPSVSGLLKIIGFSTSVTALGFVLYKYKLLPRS
Protocol: as §1, §2

Phosphodiesterase 3B = molecular target: T3, Phosphodiesterase 3B (Homo sapiens, UniProt Q13370); experiment: Off-target screening (CEREP); format: biochemical; conditions: read-out: percent inhibition
T3 construct: purchased Eurofins CEREP SA
T3 sequence (Q13370 whole entry): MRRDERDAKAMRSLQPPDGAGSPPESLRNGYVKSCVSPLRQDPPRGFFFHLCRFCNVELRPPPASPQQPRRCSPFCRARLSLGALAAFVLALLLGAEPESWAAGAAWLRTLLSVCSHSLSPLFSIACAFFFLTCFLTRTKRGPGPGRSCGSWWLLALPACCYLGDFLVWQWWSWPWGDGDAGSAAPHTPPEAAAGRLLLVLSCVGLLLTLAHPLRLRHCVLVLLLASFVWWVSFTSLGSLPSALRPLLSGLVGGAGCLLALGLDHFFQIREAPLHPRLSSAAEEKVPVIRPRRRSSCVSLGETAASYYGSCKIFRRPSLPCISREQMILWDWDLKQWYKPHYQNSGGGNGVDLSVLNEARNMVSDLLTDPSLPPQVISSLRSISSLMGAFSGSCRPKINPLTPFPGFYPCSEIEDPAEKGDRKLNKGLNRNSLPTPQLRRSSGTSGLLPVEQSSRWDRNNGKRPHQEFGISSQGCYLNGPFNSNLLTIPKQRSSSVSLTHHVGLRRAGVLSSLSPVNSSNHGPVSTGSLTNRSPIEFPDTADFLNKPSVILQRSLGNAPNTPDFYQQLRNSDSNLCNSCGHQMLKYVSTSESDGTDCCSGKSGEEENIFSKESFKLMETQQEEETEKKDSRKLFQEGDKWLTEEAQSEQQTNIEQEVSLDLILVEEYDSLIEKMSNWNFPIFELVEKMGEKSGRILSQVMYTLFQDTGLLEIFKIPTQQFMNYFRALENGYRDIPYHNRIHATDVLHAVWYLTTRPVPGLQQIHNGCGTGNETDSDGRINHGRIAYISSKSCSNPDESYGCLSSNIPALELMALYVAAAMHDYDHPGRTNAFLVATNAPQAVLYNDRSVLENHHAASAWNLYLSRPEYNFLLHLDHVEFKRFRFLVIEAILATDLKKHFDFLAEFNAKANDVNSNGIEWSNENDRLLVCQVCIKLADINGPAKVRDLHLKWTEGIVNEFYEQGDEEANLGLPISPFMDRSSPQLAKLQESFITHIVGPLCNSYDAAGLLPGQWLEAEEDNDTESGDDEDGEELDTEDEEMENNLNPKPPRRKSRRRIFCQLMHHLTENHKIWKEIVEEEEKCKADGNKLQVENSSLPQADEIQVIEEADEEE
Protocol: as §1, §2

C. albicans ATCC 90028 = experiment: microbe, parasite or virus in culture; conditions: Candida albicans, ATCC90028
hERG = hERG (Homo sapiens, UniProt Q12809); experiment: hERG
Chain of hERG (Q12809 whole entry): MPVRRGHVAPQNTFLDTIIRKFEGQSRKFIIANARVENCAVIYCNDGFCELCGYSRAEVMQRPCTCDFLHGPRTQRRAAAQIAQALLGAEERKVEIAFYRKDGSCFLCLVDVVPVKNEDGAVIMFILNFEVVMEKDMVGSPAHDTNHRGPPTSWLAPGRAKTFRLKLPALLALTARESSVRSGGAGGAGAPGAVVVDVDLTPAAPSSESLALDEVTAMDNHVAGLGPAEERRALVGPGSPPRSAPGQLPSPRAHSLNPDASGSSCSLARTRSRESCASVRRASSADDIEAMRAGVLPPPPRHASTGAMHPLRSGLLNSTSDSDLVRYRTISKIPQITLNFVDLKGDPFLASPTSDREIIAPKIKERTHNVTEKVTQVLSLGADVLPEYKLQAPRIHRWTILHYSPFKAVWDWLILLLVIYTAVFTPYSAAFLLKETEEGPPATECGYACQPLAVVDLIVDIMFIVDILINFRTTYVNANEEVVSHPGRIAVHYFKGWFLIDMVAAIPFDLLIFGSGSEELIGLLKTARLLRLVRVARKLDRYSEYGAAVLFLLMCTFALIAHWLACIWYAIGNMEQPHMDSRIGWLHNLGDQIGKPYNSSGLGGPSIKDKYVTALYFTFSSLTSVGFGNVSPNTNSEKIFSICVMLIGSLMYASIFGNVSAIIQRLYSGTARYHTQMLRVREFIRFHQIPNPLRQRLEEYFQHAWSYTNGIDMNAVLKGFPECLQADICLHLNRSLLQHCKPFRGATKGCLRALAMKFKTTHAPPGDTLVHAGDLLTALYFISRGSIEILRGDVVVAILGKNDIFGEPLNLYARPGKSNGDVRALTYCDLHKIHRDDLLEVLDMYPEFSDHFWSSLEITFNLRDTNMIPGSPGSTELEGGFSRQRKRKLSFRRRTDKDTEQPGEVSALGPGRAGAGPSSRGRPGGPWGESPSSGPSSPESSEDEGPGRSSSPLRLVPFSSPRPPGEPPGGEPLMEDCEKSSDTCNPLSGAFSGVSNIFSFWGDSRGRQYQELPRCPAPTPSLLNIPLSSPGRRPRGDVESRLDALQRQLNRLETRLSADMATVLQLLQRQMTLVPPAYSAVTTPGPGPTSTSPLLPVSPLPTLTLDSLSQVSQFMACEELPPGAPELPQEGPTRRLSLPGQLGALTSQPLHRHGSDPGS

[1] = Rat plasma precipitation assay
Protocol: Whole blood was obtained from WISTAR rats and collected in 1.2 ml heparin tubes for the preparation of heparin plasma. The tubes were then centrifuged for 5 min at 5,200g at room temperature to isolate the plasma supernatant. Test compounds were received as powder and solubilized at various concentrations in 0.9% aqueous sodium chloride solution and adjusted for pH with phosphate-buffered saline (PBS). The assay was conducted in 384-well plates. Rat plasma (10 µl) was added to 10 µl of the various compound solutions. A total of 10 µl of vehicle (0.9% aqueous sodium chloride solution, PBS) added to the plasma was used as a negative control. The absorption was measured at 362 nm. Raw data were obtained as absorbance data. The difference between the absorbance of the sample and the mean absorbance of the vehicle was calculated. The minimum effect concentration was defined as the lowest concentration giving an absorbance difference of OD362 ≥ 0.05.

[2] = Human whole blood haemolysis assay; conditions: human heparinated blood, 4 mg/mL, 10 min 37 °C, haemoglobin at 540 nm
Protocol: For the in vitro haemolysis test, blood was provided by Roche medical services through an anonymous blood donation for research program, approved by the Ethics Committee Northwestern Switzerland and Central Switzerland (EKNZ) and collected with informed consent. Blood was collected by venipuncture in ethylenediaminetetraacetic acid (EDTA) and Li-heparin-coated tubes. Plasma was prepared from anticoagulated blood by centrifugation (2,500g; 10 min; at room temperature) and the haematocrit was measured to ensure that it was within normal reference values. Each formulation of compound in saline was added at a concentration of 8 mg ml^−1 into test tubes containing exactly 0.5 ml of heparinated blood to give a final assay volume of 1 ml and a concentration of 4 mg ml^−1 or less (following further dilutions). After incubation in a water bath for 10 min at 37 °C, the tubes were centrifuged (10 min, 1,811g at room temperature) and 100 μl of the supernatant was subsequently transferred into test tubes containing 5 ml Drabkins solution (RANDOX Laboratories) and 1 ml phosphate buffer. Haemoglobin was photometrically determined at 540 nm according to the RANDOX test-kit instructions. The results were expressed as percentage haemolysis extrapolated from an internal standard curve with 0%, 50% and 100% haemolysed blood samples.

Abl kinase = molecular target: T4, Abl kinase (Homo sapiens, UniProt P00519); experiment: Off-target screening (CEREP); format: biochemical; conditions: read-out: percent inhibition
T4 construct: purchased Eurofins CEREP SA
T4 sequence (P00519 whole entry): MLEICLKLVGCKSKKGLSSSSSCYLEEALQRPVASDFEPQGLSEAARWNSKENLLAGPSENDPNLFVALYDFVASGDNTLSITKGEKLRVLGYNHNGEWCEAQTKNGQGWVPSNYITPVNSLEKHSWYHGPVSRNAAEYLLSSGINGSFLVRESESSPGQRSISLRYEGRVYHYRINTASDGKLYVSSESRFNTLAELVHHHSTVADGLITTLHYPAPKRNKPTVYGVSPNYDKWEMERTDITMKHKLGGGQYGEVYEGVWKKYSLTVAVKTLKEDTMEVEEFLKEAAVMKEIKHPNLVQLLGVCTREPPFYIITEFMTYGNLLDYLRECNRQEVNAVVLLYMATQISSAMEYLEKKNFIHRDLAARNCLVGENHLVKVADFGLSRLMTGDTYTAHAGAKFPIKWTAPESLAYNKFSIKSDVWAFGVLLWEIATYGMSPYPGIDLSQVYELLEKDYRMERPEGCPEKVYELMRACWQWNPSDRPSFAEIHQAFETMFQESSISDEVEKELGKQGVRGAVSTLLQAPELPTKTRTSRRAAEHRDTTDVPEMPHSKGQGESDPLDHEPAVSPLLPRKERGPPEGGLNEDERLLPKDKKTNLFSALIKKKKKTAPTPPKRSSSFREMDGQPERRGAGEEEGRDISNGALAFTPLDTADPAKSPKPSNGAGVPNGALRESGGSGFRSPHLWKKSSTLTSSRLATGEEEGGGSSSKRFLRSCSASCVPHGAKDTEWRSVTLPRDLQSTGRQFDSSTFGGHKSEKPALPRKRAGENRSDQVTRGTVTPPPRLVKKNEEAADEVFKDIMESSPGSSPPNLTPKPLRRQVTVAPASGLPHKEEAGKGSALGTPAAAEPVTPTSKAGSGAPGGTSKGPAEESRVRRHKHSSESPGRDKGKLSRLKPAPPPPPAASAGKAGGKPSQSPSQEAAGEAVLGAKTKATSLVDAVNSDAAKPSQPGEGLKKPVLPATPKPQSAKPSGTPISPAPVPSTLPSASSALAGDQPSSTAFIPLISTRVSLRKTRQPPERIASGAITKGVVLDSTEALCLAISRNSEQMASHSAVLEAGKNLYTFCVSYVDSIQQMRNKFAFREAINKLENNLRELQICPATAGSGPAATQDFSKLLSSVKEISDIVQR
Protocol: as §1, §2

## CN1C(=O)[C@H](CCCN)NC(=O)[C@H](CCCN)NCc2ccccc2Sc2ccccc2CNC(=O)[C@@H]1Cc1c[nH]c2ccccc12 [RO7036668]
P. aeruginosa ATCC 27853; ATCC27853, CAMHB, mode of at least three replicates (RO7036668 one replicate)
  MIC: > 64 µg/mL
HEK293 cells
  IC50: > 100 µM
CDK2; 10 µM, duplicates
  inhibition at 10 µM: 9%
Monoamine oxidase-A; 10 µM, duplicates
  inhibition at 10 µM: -2%
Phosphodiesterase 3B; 10 µM, duplicates
  inhibition at 10 µM: 17%
C. albicans ATCC 90028
  MIC: 64 µg/mL (≈ 97.6 µM)

## CN1C(=O)[C@H](CCCCN)NC(=O)[C@H](CCCN)NCc2cccnc2Sc2c(Cl)ccc(Cl)c2CNC(=O)[C@@H]1Cc1c[nH]c2ccccc12 [RO7075573]
P. aeruginosa ATCC 27853; ATCC27853
  MIC: > 64 µg/mL
P. aeruginosa ATCC 27853; Study LGC281440
  MIC 100%: 64 µg/mL (≈ 86.5 µM)
P. aeruginosa ATCC 27853; Study LGC282160
  MIC 100%: >64 µg/mL
P. aeruginosa ATCC 27853; Study LGC284879
  MIC 100%: >64 µg/mL
P. aeruginosa ATCC 27853; Study LGC285582
  MIC 100%: >64 µg/mL
P. aeruginosa ATCC 27853; Study LGC286210
  MIC 100%: 64 µg/mL (≈ 86.5 µM)
P. aeruginosa ATCC 27853; Study LGC293598
  MIC 100%: >64 µg/mL
P. aeruginosa ATCC 27853; Study LGC294355
  MIC 100%: >64 µg/mL
P. aeruginosa ATCC 27853; Study LGC295147
  MIC 100%: 64 µg/mL (≈ 86.5 µM)
P. aeruginosa ATCC 27853; Study LGC296813
  MIC 100%: 64 µg/mL (≈ 86.5 µM)
P. aeruginosa ATCC 27853; Study LGC299544
  MIC 100%: >64 µg/mL
P. aeruginosa ATCC 27853; Study LGC301026
  MIC 100%: >64 µg/mL
P. aeruginosa ATCC 27853; Study LGC308175
  MIC 100%: >64 µg/mL
P. aeruginosa ATCC 27853; Study ROC010
  MIC 100%: >64 µg/mL
P. aeruginosa ATCC 27853; Study ROC012
  MIC 100%: >64 µg/mL
HEK293 cells
  IC50: > 100 µM
hERG
  IC50: > 10 µM
  hERG IC20: 4 µM
Micronucleus test (MNT)
  MNT: Negative
[1]; Wistar rat heparin plasma 1:1 with compound in saline/PBS, absorbance difference OD362 ≥ 0.05, n = 1
  Threshold concentration for precipitation: 0.038 mg/mL and 0.0385 mg/mL
[1]; rat plasma
  Threshold concentration causing precipitation: 52 µM
[2]
  Haemolysis: 37%
Abl kinase
  inhibition at 10 µM: -85%
CDK2
  inhibition at 10 µM: -5%
Monoamine oxidase-A
  inhibition at 10 µM: 3%
Phosphodiesterase 3B
  inhibition at 10 µM: -3%
C. albicans ATCC 90028
  MIC: > 64 µg/mL
